# Read-outs that look alike come from different tables or passages of the source.
# Columns and labels:
# p-eIF2α = p-eIF2α immunoblot, OCI-AML2; format: cell-based, human; conditions: 300 μg/ml G418 or 200 nM Compound D
# Procedure: It is known that amino acid starvation causes GCN2 activation, which phosphorylates eIF2α. Because GSPT1 mediates normal translation termination, it is hypothesized that depletion of GSPT1 by Compound D may cause readthrough of stop codons. Whether the translational readthrough induced by Compound D contributes to the increased levels of p-eIF2α was investigated. OCI-AML2 cells stably expressing the Fluc/Nluc-G36A readthrough reporter were treated with 300 μg/ml G418 or 200 nM Compound D for 2, 4, 6, 8, 10, 12, or 16 hours. The levels of p-eIF2α were measured by immunoblot analysis. AML2 readthrough assay was conducted to measure the readthrough reporter.
# healthy donor PBMCs = test: Anti-proliferation, healthy donor PBMCs; format: cell-based; conditions: Homo sapiens, PBMC; healthy donor PBMCs (data not shown)
# MOLM-13 cells = test: Anti-proliferation CTG assay, MOLM-13; format: cell-based, human
# Procedure: A plethora of AML cell lines were treated with serial dilutions of Compound D. IC50 value of the anti-proliferation effect of Compound D (as determined in 72-hour CTG assays) in each cell line is summarized in Table 1.
# The effect of overexpression of GSPT1 on the anti-proliferative effect of Compound D and Compound E was determined in human histiocytic lymphoma cell line U937 and human leukemia cell line MOLM13. Treatment compounds (e.g., Compound D or Compound E) were titrated from 0.001 μM to 10 μM. Cell proliferation was measured by CellTiter-Glo cell viability assay at 48 hours after treatment. […] However, when exogenous GSPT1 was overproduced via the EF1α promoter, as shown in FIGS. 5A-5D, the anti-proliferative effect of Compound D and Compound E reduced.
# ATF3 = ATF3 mRNA, quantitative PCR, KG-1; format: cell-based, human; conditions: KG-1, 100 nM Compound D or greater
# Procedure: Compound D regulates UPR stress RNAs, ATF3 and CHOP, and nonsense-mediated decay (NMD) RNAs, SRSF3 and SRSF6, in KG-1 cells in both dose- and time-dependent manners. KG-1 cells were plated in 10 cm^2 dishes and incubated overnight. The following day, KG-1 cells were treated with a 6-point dose response (0, 3, 10, 30, 100, 300 nM) of Compound D and incubated for 2, 4, 8, and 20 hours. Cells were removed from dishes and cell pellets were prepared for RNA isolation (Qiagen RNA isolation kit). Total RNA was quantitated using NanoDrop spectrophotometer and cDNA was reversely transcribed using 1 μg total RNA. Quantitative PCR was performed in replicates for each sample using primer sets for ATF3, CHOP, and both NMD and normal transcripts of SRSF3 and SRSF6. Data was doubly normalized to the 18S housekeeping gene and 2 hour DMSO control. Normalized RNA expression (y-axis) versus drug concentration in nM (x-axis) for each time point was plotted. SRSF3-1 NMD and SRSF6-1 NMD depict amplification of NMD transcript for SRSF3 and SRSF6, respectively. SRSF3-3 Normal and SRSF6-3 Normal depict amplification of normal transcript for SRSF3 and SRSF6 genes, respectively. […] FIGS. 29A-29F show effects of Compound D treatment on UPR and NMD pathways in KG-1 cells. […] Additionally, 100 nM Compound D or greater induced the mRNA levels of ATF3 and DDIT3 (CHOP) approximately 100-fold and 10-fold, respectively. […]
# KG-1 cells = test: Apoptosis (caspase 3/7 activation), KG-1; format: cell-based, human; conditions: for EC50: Homo sapiens, read-out: Compound D-induced Apoptosis EC50
# GSPT1 [1] = target: T1, GSPT1 (Homo sapiens, UniProt P15170+Q96SW2); test: GSPT1 protein reduction, western analysis, HNT-34; format: cell-based; parameters: reduction in GSPT1 protein level was evaluated in human normal PBMCs; endogenous in cells; host or cells: primary PBMCs from normal donors (ID 4328, 4379) and AML patients (ID 11SH, 09P6); conditions: HNT-34, 10 nM Compound D
# Procedure: (§1) The time course of the reduction in GSPT1 by Compound D also was studied for up to 48 hours. The progressive degradation of GSPT1 over the course of 1 to 20 hours was evident in the presence of all concentrations of Compound D studied from 3 to 300 nM in HNT-34, HL-60, and ML-2 cells, with little GSPT1 remaining by 20 hours at 100 or 300 nM Compound D in HNT-34 or HL-60 cells (FIG. 34 and FIG. 35C). Time-dependent reduction in GSPT1 was also observed in KG-1 and OCI-AML2 cells at 3 to 1000 nM Compound D, with little GSPT1 remaining in KG-1 cells at 100 to 300 nM at 24 hours or in OCI-AML2 cells at 300 and 1000 nM at 24 hours (FIG. 35D). Loss of GSPT1 occurred more slowly in Kasumi-1, AML-193, and […] cells. […] A positive association (r^2=0.50; […]
# GSPT1 [2] = target: T1, GSPT1; test: GSPT1 protein reduction, western analysis, AML-193; format: cell-based; parameters: reduction in GSPT1 protein level was evaluated in human normal PBMCs; endogenous in cells; host or cells: primary PBMCs from normal donors (ID 4328, 4379) and AML patients (ID 11SH, 09P6)
# Procedure: as §1
# T1 sequence (P15170 1-637 isoform P15170-3): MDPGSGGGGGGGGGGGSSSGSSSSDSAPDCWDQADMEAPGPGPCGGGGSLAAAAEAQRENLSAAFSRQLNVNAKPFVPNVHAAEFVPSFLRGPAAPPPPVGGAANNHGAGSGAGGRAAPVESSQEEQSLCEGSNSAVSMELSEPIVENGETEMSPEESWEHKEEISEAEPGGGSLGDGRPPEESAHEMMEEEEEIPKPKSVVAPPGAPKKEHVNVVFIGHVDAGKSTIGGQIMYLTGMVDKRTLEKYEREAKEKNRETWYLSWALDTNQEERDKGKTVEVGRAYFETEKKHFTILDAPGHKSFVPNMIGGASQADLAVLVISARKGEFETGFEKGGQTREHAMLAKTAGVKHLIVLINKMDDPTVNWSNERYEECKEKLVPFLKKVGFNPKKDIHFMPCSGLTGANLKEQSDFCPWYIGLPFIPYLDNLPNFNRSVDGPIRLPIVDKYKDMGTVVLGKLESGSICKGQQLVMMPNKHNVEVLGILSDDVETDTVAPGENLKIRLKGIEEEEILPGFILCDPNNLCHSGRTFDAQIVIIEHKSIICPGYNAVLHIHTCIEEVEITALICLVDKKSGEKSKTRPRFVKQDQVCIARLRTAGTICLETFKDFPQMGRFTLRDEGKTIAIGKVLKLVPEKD
# T1 sequence (Q96SW2 whole entry): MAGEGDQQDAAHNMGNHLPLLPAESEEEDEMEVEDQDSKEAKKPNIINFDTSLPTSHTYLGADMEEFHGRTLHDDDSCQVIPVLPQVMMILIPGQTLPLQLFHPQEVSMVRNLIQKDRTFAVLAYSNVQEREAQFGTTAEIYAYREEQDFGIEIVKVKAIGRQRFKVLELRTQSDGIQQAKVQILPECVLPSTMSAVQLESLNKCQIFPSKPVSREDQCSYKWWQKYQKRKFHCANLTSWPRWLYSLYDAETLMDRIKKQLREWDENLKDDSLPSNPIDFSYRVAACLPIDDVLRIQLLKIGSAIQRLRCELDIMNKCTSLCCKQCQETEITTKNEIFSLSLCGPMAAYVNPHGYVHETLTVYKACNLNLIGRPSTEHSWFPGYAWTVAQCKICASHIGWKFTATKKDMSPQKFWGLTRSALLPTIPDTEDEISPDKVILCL
# T1 sequence (Q16531 whole entry partner): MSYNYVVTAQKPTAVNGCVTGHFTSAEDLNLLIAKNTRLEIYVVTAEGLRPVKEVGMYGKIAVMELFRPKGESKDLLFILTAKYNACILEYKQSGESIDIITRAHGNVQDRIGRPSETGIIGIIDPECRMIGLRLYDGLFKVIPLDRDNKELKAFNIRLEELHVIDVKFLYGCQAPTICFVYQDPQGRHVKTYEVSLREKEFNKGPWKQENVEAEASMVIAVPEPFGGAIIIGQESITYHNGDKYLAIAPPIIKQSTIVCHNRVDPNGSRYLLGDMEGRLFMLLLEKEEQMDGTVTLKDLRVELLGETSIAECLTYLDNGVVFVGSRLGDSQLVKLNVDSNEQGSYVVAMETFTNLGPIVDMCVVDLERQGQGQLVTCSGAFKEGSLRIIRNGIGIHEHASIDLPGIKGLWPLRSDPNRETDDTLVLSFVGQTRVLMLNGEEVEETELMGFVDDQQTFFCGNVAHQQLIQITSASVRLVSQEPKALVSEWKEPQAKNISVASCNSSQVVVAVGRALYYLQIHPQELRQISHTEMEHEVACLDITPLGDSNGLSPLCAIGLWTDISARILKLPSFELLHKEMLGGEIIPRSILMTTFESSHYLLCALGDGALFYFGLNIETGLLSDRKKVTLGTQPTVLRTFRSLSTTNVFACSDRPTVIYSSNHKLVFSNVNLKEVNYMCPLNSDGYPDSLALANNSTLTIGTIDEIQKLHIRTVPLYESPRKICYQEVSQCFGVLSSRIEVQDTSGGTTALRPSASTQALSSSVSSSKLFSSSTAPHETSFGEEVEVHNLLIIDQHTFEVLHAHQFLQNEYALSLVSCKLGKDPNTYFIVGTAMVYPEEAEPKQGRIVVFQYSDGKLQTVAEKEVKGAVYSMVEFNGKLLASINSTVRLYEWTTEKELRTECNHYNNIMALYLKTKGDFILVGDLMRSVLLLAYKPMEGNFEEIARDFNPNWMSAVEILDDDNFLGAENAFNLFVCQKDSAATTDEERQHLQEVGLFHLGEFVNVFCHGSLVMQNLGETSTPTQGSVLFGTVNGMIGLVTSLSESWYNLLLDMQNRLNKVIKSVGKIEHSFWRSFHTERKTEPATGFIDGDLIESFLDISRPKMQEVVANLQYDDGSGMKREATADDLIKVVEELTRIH
smiles,measurement,setting,value
"O=C1CCC(N2Cc3cc(CNC(=O)C(F)(F)c4ccc(Cl)cc4)ccc3C2=O)C(=O)N1 (centres unmarked) [Compound D, 2-(4-chlorophenyl)-N-((2-(2,6-dioxopiperidin-3-yl)-1-oxoisoindolin-5-yl)methyl)-2,2-difluoroacetamide]",levels of p-eIF2α,p-eIF2α,increased the levels
same,IC50,healthy donor PBMCs,> 10000 nM
same,IC50,"MOLM-13 cells; Homo sapiens, MOLM-13, 72-hour CTG assay, read-out: IC50 of the anti-proliferative effect",75 nM
same,anti-proliferative effect,"MOLM-13 cells; MOLM13 CRBN -/- cells, 48 hours",completely abolished
same,cell proliferation (CellTiter-Glo),"MOLM-13 cells; MOLM13 parental cells, 0.001 μM to 10 μM, 48 hours",inhibited cell proliferation
same,induction of ATF3 mRNA level,ATF3,approximately 100 fold
same,EC50,"KG-1 cells; KG-1, 12 hr",53 nM
same,EC50,"KG-1 cells; KG-1, 48 hr",39 nM
same,EC50,"KG-1 cells; KG-1, 72 hr",26 nM
same,EC50,"KG-1 cells; KG-1, 96 hr",25 nM
same,average percent increase in apoptosis,"KG-1 cells; KG-1, 41 nM, 24 hour time point",11%
same,"Average Percent Increase in Apoptosis at 123 nM Compound D, Apoptosis (12 hr)","KG-1 cells; KG-1, 123 nM, 12 hr",2%
same,"Average Percent Increase in Apoptosis at 123 nM Compound D, Apoptosis (24 hr)","KG-1 cells; KG-1, 123 nM, 24 hr",16%
same,"Average Percent Increase in Apoptosis at 123 nM Compound D, Apoptosis (48 hr)","KG-1 cells; KG-1, 123 nM, 48 hr",42%
same,time at which GSPT1 degradation was evident,GSPT1 [1],≤ 2 h
same,Percent Reduction at 100 nM Compound D GSPTI (8 hr),"GSPT1 [2]; AML-193, 100 nM, 8 hr",49%
same,GSPT1 reduction,"GSPT1 [2]; AML-193, 300 nM Compound D, 8 hours",61%

# — US12474342B2, “Methods for treating cancer and the use of biomarkers as a predictor of clinical sensitivity to therapies” (CELGENE CORPORATION, priority 2016, dated 2025)
